Source: PMC8269058, “The Odorant-Binding Proteins of the Spider Mite Tetranychus urticae” (International Journal of Molecular Sciences, 2021)

Tests used:
TurtOBP4 [1] = assay: fluorescent probe titration (blue shift) with purified recombinant protein; assay type: binding, Tetranychus urticae
TurtOBP1 [2] = assay: as above; assay type: binding, Tetranychus urticae
TurtOBP1 [3] = assay: competitive fluorescence binding assay, displacement of 1-NPN; set-up: species or system Tetranychus urticae
TurtOBP4 [4] = assay: as above; set-up: species or system Tetranychus urticae

## c1ccc(Nc2cccc3ccccc23)cc1 [1-NPN]
TurtOBP4 [1]
  Kd: 3.5 µM
TurtOBP1 [2]
  Kd: 9.7 µM

## COc1cc(/C=C/C=O)ccc1O [coniferyl aldehyde]
TurtOBP1 [3]
  Kd: 9.8 µM
TurtOBP4 [4]
  Kd: 6.4 µM
